Laboratory results as given in US4405634A, “Imidazole derivatives for treating myocardial infarction” (Burroughs Wellcome Co., priority 1977, dated 1983).

Experiments:
TXA2 synthetase = biological target: T1, TXA2 synthetase (Equus caballus, UniProt A0A9L0T8T9); experiment: thromboxane production from labelled arachidonic acid by homogenised horse platelets (concentration to reduce the enzyme activity by 50%); format: biochemical; conditions: horse platelet homogenate, pH 7.4, 5 min preincubation, 3 min at 37° C. with arachidonic acid, read-out: ED50 (the source's name) (converted)
T1 construct: arachidonic acid substrate, thromboxane B2 measured by radio-TLC
T1 sequence (A0A9L0T8T9 2-534): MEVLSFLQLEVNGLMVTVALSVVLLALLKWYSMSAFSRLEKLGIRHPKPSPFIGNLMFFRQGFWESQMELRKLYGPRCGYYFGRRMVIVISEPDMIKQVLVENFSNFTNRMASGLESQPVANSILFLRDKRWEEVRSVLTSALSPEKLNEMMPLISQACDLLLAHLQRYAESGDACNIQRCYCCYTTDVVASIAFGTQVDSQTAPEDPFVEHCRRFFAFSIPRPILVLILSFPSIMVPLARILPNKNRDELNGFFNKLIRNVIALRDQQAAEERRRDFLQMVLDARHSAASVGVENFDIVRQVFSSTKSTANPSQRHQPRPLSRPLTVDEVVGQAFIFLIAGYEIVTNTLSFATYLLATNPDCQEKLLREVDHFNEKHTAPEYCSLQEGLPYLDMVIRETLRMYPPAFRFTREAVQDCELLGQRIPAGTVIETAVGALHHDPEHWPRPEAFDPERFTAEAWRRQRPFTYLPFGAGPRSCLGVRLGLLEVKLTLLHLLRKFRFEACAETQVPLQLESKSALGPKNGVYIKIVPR
T1 sequence (F7BQR7 24-599 partner): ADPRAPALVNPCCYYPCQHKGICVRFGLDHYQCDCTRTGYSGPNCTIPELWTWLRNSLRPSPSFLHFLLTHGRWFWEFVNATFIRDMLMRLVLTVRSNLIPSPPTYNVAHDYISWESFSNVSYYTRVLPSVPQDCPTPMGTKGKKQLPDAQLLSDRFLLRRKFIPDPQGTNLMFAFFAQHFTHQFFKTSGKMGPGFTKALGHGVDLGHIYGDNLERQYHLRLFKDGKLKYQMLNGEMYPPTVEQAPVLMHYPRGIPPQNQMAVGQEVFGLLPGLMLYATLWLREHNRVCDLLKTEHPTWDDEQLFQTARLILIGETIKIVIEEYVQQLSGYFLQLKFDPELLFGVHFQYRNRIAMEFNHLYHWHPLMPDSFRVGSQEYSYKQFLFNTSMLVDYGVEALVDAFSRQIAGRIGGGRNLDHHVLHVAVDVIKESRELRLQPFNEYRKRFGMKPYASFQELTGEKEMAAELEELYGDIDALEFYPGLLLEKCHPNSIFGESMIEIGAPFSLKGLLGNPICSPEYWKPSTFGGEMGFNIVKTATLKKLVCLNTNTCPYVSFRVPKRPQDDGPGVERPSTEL
Description: (§1) Horse platelets were prepared from whole horse blood by differential centrifugation. Approximately 10^6 platelets were homogenised in 1 ml 100 mM Tris buffer pH 7.4. Various concentrations of active compound were added and the reaction sets incubated for 5 minutes at ambient temperature. To each tube was added 20 nM of arachidonic acid containing 10^6 DPM of labelled arachidonic acid and the tubes incubated for 3 minutes at 37° C. in a shaking water bath. After incubation the radioactive products were extracted from the acidified aqueous phase with ethyl acetate and after concentration resolved by thin layer chromotography on silica gel with chloroform/methanol/acetic acid/water (90:8:1:0.8) as a developing solvent. The amount of thromboxane produced was measured by scraping the radioactive zone corresponding to thromboxane B2 and estimating the radioactivity in a liquid scintillation counter.
The concentration of active compound to reduce the enzyme activity by 50% (ED50) was established.

[1] = tested on: PGE, PGF and PGD (anti-aggregatory-prostaglandin generating enzymes); experiment: selectivity: amount of PGE, PGF and PGD produced by homogenised horse platelets; format: biochemical; parameters: key: O indicates no selectivity; + low selectivity; ++ medium selectivity; conditions: the greater the selectivity, the more anti-aggregating prostaglandins are produced
Description: as §1
The selectivity of the active compounds was measured in a similar manner to that described above and the amount of PGE, PGF and PGD produced was determined. The greater the selectivity, the more of the anti-aggregating prostaglandins are produced.
The ED50 and Selectivity results are shown in Table A in which O indicates no selectivity; + low selectivity and ++ medium selectivity.

platelet clumps = experiment: disaggregation of platelet clumps
platelet aggregation = experiment: inhibition of platelet aggregation in vivo
[2] = tested on: enzymic conversion of the endoperoxides (PGG2 and PGH2) to thromboxane A2; conditions: platelet microsomes; Moncada et al., Prostaglandins, 13/4, 611-618, 1977; cited from earlier work
serum cholesterol = conditions: U.K. Pat. No. 1 364 312; Biochem. Pharmacol. 24, 1902-1903, 1975; cited from earlier work

| SMILES | IC50 (TXA2 synthetase) | Selectivity [1] | other results |
| --- | --- | --- | --- |
| Cc1cc(C)c(Cn2ccnc2)c(C)c1 [1-(2,4,6-Trimethylbenzyl)imidazole, 1-(2,4,6-trimethylbenzyl)imidazole] | 17 µM | ++ | – |
| Cc1ccc(Cn2ccnc2)cc1C [1-(3,4-Dimethylbenzyl)imidazole, 1-(3,4-dimethylbenzyl)imidazole] | 32.2 µM | ++ | disaggregating platelet clumps (platelet clumps): capable of disaggregating platelet clumps; inhibiting platelet aggregation in vivo (platelet aggregation): capable of inhibiting platelet aggregation in vivo |
| Clc1ccc(C=CCn2ccnc2)c(Cl)c1 [1-[3-(2,4-dichlorophenyl)prop-2-enyl]imidazole] | 16.2 µM | + | – |
| Clc1cccc(Cl)c1C=CCn1ccnc1 [1-[3-(2,6-dichlorophenyl)prop-2-enyl]imidazole] | 3.95 µM | + | – |
| Cn1ccnc1 [1-methylimidazole] | – | – | inhibition of the enzymic conversion of PGG2 and PGH2 to thromboxane A2 [2]: some degree of inhibition |
| CCCCCCCCCCCCn1ccnc1 [1-n-dodecylimidazole] | – | – | lowering serum cholesterol levels (serum cholesterol): capable of lowering serum cholesterol levels |
| c1c[nH]cn1 [Imidazole] | – | – | inhibition of the enzymic conversion of PGG2 and PGH2 to thromboxane A2 [2]: some degree of inhibition |
